Data taken from publication PMC11912728, “L-asparaginase from the novel Fusarium falciforme AUMC 16563: extraction, purification, characterization, and cytotoxic effects on PC-3, HePG-2, HCT-116, and MCF-7 cell lines” (BMC Microbiology, 2025).

Tested on: T1, L-asparaginase (pure asparaginase) from Fusarium falciforme AUMC 16563
T1 construct: native extracellular enzyme purified from culture supernatant (ethanol, DEAE-cellulose, Sephacryl S-200 HR)
Assay: Nesslerization (ammonia release, […] nm), Lineweaver-Burk
Assay type: biochemical
Settings: substrate 2.0-20.0 mM; pH and temperature of the kinetic assay not given

Structure (SMILES) | Km [mM]
NC(=O)C[C@H](N)C(=O)O [L-asparagine] | 0.0577
N[C@@H](CCC(=O)O)C(=O)O [glutamic acid] | 12.2
N[C@@H](CC(=O)O)C(=O)O [aspartic acid] | 10.1
NC(=O)CC[C@H](N)C(=O)O [L-glutamine] | 9.12
